Measurements taken from ChEMBL document CHEMBL1909046, “DrugMatrix in vitro pharmacology data”.

Key:
[1] = molecular target: T1, Alpha-1D adrenergic receptor (Homo sapiens, UniProt P25100); assay type: cell membranes, HEK293, Membrane; conditions: hek293; further: in other assays of this panel Not Active means under 50% inhibition at 10 µM
T1 sequence (P25100 whole entry): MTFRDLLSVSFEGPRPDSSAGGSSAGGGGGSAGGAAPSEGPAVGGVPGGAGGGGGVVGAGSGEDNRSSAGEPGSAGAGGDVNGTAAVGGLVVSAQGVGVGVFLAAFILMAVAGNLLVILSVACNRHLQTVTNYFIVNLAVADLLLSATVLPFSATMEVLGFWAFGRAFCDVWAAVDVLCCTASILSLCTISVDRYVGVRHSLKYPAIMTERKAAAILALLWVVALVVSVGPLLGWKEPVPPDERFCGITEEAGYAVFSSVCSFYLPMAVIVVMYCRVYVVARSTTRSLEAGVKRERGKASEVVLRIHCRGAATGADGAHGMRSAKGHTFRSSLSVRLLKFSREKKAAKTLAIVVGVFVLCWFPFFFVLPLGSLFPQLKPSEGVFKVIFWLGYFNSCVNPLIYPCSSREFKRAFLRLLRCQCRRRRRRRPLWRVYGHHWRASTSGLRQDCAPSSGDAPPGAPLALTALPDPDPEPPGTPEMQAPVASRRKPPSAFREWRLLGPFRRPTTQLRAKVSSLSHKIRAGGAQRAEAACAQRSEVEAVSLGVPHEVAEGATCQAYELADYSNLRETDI

[2] = molecular target: 5-hydroxytryptamine receptor 4 (Cavia porcellus, UniProt O70528); assay type: cell membranes, Dunkin-Hartley, Striatum, Membrane; further: in other assays of this panel Not Active means under 50% inhibition at 10 µM
[3] = molecular target: 5-hydroxytryptamine receptor 6 (Homo sapiens, UniProt P50406); assay type: cell membranes, HeLa, Membrane; conditions: hela; further: in other assays of this panel Not Active means under 50% inhibition at 10 µM
Substance-P receptor = Substance-P receptor (Homo sapiens, UniProt P25103); assay type: cell membranes, CHO, Membrane; conditions: cho; further: in other assays of this panel Not Active means under 50% inhibition at 10 µM
Endothelin-1 receptor = molecular target: T2, Endothelin-1 receptor (Homo sapiens, UniProt P25101); assay type: cell membranes, Membrane; conditions: cho-k1; further: in other assays of this panel Not Active means under 50% inhibition at 10 µM
T2 sequence (P25101 whole entry): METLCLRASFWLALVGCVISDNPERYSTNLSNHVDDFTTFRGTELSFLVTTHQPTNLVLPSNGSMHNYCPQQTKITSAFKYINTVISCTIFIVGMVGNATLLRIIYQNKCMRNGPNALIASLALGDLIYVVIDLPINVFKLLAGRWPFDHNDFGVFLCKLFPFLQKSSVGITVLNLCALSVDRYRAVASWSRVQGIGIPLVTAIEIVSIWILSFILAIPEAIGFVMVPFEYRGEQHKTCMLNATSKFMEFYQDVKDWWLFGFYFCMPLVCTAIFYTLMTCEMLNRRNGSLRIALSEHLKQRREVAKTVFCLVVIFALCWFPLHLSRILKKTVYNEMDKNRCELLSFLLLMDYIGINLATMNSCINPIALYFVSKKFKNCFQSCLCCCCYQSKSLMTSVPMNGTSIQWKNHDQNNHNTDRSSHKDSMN

[4] = molecular target: T3, Cysteinyl leukotriene receptor 1 (Homo sapiens, UniProt Q9Y271); assay type: cell membranes, CHO-K1, Membrane; conditions: cho-k1; further: in other assays of this panel Not Active means under 50% inhibition at 10 µM
T3 sequence (Q9Y271 whole entry): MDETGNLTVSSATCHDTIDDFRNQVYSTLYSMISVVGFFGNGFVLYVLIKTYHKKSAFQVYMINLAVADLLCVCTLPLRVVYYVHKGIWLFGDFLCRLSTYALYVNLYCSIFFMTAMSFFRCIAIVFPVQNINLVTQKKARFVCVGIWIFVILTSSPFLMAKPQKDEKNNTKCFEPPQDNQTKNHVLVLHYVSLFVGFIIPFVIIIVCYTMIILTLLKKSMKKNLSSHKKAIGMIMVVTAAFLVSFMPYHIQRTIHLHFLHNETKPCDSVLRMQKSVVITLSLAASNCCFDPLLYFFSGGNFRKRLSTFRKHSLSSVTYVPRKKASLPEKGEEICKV

Melanocortin receptor 3 = Melanocortin receptor 3 (Homo sapiens, UniProt P41968); assay type: cell membranes, Membrane; conditions: hek293; further: in other assays of this panel Not Active means under 50% inhibition at 10 µM
[5] = molecular target: Mitogen-activated protein kinase 3 (Homo sapiens, UniProt P27361); test: DRUGMATRIX: Protein Serine/Threonine Kinase, ERK1 enzyme inhibition (substrate: Myelin Basic Protein); design: species or system Escherichia coli; conditions: Not Active = under 50% inhibition at 10 µM
[6] = molecular target: Mitogen-activated protein kinase 1 (Homo sapiens, UniProt P28482); test: DRUGMATRIX: Protein Serine/Threonine Kinase, ERK2 enzyme inhibition (substrate: Myelin Basic Protein); design: species or system Escherichia coli; conditions: Not Active = under 50% inhibition at 10 µM
[7] = molecular target: 5-hydroxytryptamine receptor 1B (Rattus norvegicus, UniProt P28564); assay type: cell membranes, Wistar, Cerebral cortex, Membrane; further: in other assays of this panel Not Active means under 50% inhibition at 10 µM
Adenosine receptor A1 = molecular target: T4, Adenosine receptor A1 (Homo sapiens, UniProt P30542); assay type: cell membranes, CHO, Membrane; conditions: cho
T4 sequence (P30542 whole entry): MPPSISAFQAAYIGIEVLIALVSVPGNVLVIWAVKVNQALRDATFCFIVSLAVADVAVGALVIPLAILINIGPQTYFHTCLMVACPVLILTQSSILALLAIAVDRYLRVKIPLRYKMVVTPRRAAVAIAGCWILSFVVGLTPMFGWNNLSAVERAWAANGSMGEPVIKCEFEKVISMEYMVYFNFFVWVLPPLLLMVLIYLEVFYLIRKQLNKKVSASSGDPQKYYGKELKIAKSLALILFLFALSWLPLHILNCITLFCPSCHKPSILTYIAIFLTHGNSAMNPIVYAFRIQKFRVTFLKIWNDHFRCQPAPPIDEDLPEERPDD

Cytochrome P450 1A2 = molecular target: T5, Cytochrome P450 1A2 (Homo sapiens, UniProt P05177); conditions: bti-tn-5b1-4; further: in other assays of this panel Not Active means under 50% inhibition at 10 µM
T5 sequence (P05177 whole entry): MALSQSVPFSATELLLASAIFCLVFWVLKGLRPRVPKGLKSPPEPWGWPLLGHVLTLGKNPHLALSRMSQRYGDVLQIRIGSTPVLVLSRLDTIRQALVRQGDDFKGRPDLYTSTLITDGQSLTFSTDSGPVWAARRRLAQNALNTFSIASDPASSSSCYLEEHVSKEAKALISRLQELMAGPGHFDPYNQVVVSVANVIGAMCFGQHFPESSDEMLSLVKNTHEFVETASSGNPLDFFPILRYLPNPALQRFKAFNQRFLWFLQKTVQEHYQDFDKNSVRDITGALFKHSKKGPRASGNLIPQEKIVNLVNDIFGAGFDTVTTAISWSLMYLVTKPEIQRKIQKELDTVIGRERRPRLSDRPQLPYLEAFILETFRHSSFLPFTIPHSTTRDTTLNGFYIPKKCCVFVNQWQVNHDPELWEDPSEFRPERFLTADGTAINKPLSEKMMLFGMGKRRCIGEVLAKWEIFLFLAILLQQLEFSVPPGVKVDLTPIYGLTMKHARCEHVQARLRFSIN

Cytochrome P450 2E1 = Cytochrome P450 2E1 (Homo sapiens, UniProt P05181); conditions: bti-tn-5b1-4; further: in other assays of this panel Not Active means under 50% inhibition at 10 µM
Sequence of Cytochrome P450 2E1 (P05181 whole entry): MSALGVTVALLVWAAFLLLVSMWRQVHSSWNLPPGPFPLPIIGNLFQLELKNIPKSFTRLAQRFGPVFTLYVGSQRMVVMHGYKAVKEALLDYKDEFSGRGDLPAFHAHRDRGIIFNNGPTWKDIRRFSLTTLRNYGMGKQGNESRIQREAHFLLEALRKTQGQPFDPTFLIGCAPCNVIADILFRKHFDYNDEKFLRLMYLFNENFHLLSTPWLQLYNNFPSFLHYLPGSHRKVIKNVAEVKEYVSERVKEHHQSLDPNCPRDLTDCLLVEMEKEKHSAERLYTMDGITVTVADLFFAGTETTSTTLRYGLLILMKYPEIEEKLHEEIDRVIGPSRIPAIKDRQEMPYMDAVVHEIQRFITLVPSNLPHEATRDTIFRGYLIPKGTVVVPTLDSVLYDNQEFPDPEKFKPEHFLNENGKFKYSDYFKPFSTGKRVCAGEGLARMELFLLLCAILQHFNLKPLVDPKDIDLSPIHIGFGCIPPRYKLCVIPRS

Sequence of Mitogen-activated protein kinase 3 (P27361 whole entry): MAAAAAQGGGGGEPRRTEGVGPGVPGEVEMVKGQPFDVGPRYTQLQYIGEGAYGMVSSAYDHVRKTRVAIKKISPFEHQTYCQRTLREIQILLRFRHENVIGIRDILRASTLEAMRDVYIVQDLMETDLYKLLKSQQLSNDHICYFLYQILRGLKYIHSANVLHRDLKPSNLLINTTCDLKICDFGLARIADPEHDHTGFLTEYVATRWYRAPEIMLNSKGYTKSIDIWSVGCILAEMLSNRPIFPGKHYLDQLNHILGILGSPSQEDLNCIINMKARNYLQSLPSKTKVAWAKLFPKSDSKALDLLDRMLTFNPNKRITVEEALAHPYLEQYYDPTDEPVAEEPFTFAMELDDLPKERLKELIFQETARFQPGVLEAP
Sequence of Melanocortin receptor 3 (P41968 whole entry): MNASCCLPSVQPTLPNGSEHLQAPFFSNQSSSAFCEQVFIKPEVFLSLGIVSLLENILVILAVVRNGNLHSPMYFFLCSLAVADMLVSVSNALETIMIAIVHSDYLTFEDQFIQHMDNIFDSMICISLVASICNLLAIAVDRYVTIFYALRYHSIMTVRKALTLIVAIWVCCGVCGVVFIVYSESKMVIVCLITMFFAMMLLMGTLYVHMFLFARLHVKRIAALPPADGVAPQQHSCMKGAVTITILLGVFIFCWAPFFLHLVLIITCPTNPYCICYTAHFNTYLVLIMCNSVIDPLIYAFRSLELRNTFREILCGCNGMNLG
Sequence of Substance-P receptor (P25103 whole entry): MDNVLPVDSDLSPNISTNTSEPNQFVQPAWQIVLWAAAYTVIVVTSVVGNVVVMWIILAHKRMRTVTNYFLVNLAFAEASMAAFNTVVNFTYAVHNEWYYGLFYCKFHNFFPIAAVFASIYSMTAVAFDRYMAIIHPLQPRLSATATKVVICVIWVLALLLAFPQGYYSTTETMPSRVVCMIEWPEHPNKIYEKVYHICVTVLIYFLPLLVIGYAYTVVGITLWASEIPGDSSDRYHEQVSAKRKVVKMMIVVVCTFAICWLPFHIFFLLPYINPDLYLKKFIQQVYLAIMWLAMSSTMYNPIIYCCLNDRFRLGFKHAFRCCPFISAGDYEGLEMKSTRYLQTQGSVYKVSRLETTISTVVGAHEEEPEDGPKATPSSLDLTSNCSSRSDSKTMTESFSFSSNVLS
Sequence of 5-hydroxytryptamine receptor 6 (P50406 whole entry): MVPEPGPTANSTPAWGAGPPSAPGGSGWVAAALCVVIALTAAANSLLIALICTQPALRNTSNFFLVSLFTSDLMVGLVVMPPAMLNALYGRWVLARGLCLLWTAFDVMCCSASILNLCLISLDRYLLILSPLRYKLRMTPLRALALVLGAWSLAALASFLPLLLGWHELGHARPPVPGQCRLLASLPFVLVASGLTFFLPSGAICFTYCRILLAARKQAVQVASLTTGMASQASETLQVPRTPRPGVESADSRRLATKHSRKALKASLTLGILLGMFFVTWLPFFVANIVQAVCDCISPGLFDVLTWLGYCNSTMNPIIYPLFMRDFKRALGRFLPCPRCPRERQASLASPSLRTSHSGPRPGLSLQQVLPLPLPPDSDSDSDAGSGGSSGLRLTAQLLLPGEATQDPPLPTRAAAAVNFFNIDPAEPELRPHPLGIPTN
Sequence of 5-hydroxytryptamine receptor 1B (P28564 whole entry): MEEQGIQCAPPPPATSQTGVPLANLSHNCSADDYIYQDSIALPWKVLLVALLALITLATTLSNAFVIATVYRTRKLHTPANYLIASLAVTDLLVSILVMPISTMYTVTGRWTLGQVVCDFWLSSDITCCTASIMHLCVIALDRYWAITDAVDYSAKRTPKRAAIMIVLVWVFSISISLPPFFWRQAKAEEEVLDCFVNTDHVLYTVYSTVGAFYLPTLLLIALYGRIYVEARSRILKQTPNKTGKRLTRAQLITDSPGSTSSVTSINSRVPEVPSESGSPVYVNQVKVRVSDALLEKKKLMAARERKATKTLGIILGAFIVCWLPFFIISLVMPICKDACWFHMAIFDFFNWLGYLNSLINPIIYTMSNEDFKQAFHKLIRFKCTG
Sequence of Mitogen-activated protein kinase 1 (P28482 whole entry): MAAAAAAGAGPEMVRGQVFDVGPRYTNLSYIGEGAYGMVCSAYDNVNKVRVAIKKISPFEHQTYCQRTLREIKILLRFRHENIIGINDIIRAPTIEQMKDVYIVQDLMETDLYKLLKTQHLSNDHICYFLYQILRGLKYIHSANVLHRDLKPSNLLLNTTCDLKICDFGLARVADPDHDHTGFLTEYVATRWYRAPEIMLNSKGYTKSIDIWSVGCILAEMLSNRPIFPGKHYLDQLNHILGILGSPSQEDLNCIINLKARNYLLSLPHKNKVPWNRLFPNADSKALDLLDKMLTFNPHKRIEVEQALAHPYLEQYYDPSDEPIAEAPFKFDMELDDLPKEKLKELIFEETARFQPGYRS
Sequence of 5-hydroxytryptamine receptor 4 (O70528 whole entry): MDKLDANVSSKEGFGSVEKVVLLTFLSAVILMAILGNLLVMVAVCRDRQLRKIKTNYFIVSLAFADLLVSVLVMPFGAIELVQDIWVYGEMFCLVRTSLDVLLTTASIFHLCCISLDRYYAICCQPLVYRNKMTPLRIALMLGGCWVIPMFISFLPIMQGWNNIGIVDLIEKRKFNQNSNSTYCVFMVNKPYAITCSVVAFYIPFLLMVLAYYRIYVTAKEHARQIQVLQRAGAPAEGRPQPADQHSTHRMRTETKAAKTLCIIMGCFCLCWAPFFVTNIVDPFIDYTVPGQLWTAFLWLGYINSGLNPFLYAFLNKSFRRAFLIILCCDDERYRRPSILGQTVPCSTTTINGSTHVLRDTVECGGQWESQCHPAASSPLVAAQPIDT

CC1(C)S[C@@H]2[C@H](NC(=O)[C@H](NC(=O)N3CCNC3=O)c3ccccc3)C(=O)N2[C@H]1C(=O)O [AZLOCILLIN]
Not Active: IC50 [1] | IC50 [2] | IC50 [3] | IC50 (Substance-P receptor) | IC50 (Endothelin-1 receptor) | IC50 [4] | IC50 (Melanocortin receptor 3) | IC50 [5] | IC50 [6] | IC50 [7] | IC50 (Adenosine receptor A1) | IC50 (Cytochrome P450 1A2) | Ki (Cytochrome P450 1A2) | IC50 (Cytochrome P450 2E1) | Ki (Cytochrome P450 2E1)

COc1ccc2cc(CC(=O)O)ccc2c1
Not Active: IC50 [1] | IC50 [2] | IC50 [3] | IC50 (Substance-P receptor) | IC50 (Endothelin-1 receptor) | IC50 [4] | IC50 (Melanocortin receptor 3) | IC50 [5] | IC50 [6] | IC50 [7] | IC50 (Adenosine receptor A1) | IC50 (Cytochrome P450 1A2) | Ki (Cytochrome P450 1A2) | IC50 (Cytochrome P450 2E1) | Ki (Cytochrome P450 2E1)

CCOC(=O)OC(C)OC1=C(C(=O)Nc2ccccn2)N(C)S(=O)(=O)c2ccccc21 (stereo not given) [AMPIROXICAM]
Not Active: IC50 [1] | IC50 [2] | IC50 [3] | IC50 (Substance-P receptor) | IC50 (Endothelin-1 receptor) | IC50 [4] | IC50 (Melanocortin receptor 3) | IC50 [5] | IC50 [6] | IC50 [7] | IC50 (Adenosine receptor A1) | IC50 (Cytochrome P450 1A2) | Ki (Cytochrome P450 1A2) | IC50 (Cytochrome P450 2E1) | Ki (Cytochrome P450 2E1)

COCc1c(C(C)C)nc(C(C)C)c(/C=C/[C@@H](O)C[C@@H](O)CC(=O)O)c1-c1ccc(F)cc1 [CERIVASTATIN]
Not Active: IC50 [1] | IC50 [2] | IC50 [3] | IC50 (Substance-P receptor) | IC50 (Endothelin-1 receptor) | IC50 [4] | IC50 (Melanocortin receptor 3) | IC50 [5] | IC50 [6] | IC50 [7] | IC50 (Adenosine receptor A1) | IC50 (Cytochrome P450 1A2) | Ki (Cytochrome P450 1A2) | IC50 (Cytochrome P450 2E1) | Ki (Cytochrome P450 2E1)

O=C1NC(=O)C(c2ccccc2)(c2ccccc2)N1 [PHENYTOIN]
Not Active: IC50 [1] | IC50 [2] | IC50 [3] | IC50 (Substance-P receptor) | IC50 (Endothelin-1 receptor) | IC50 [4] | IC50 (Melanocortin receptor 3) | IC50 [5] | IC50 [6] | IC50 [7] | IC50 (Adenosine receptor A1) | IC50 (Cytochrome P450 1A2) | Ki (Cytochrome P450 1A2) | IC50 (Cytochrome P450 2E1) | Ki (Cytochrome P450 2E1)

O=C1CCc2cc(OCCCCc3nnnn3C3CCCCC3)ccc2N1 [CILOSTAZOL]
Not Active: IC50 [1] | IC50 [2] | IC50 [3] | IC50 (Substance-P receptor) | IC50 (Endothelin-1 receptor) | IC50 [4] | IC50 (Melanocortin receptor 3) | IC50 [5] | IC50 [6] | IC50 [7] | IC50 (Adenosine receptor A1) | IC50 (Cytochrome P450 1A2) | Ki (Cytochrome P450 1A2) | IC50 (Cytochrome P450 2E1) | Ki (Cytochrome P450 2E1)

C=C1CC[C@H](O)C/C1=C/C=C1\CCC[C@]2(C)[C@@H]([C@H](C)/C=C/[C@H](C)C(C)C)CC[C@@H]12 [ERGOCALCIFEROL]
Not Active: IC50 [1] | IC50 [2] | IC50 [3] | IC50 (Substance-P receptor) | IC50 (Endothelin-1 receptor) | IC50 [4] | IC50 (Melanocortin receptor 3) | IC50 [5] | IC50 [6] | IC50 [7] | IC50 (Adenosine receptor A1) | IC50 (Cytochrome P450 1A2) | Ki (Cytochrome P450 1A2) | IC50 (Cytochrome P450 2E1) | Ki (Cytochrome P450 2E1)

COc1ccc(CN(CCN(C)C)c2ccccn2)cc1 [PYRILAMINE]
Not Active: IC50 [1] | IC50 [2] | IC50 [3] | IC50 (Substance-P receptor) | IC50 (Endothelin-1 receptor) | IC50 [4] | IC50 (Melanocortin receptor 3) | IC50 [5] | IC50 [6] | IC50 [7] | IC50 (Adenosine receptor A1) | IC50 (Cytochrome P450 1A2) | Ki (Cytochrome P450 1A2) | IC50 (Cytochrome P450 2E1) | Ki (Cytochrome P450 2E1)

CN1C(C(=O)Nc2ccccn2)=C(O)c2ccccc2S1(=O)=O [PIROXICAM]
Not Active: IC50 [1] | IC50 [2] | IC50 [3] | IC50 (Substance-P receptor) | IC50 (Endothelin-1 receptor) | IC50 [4] | IC50 (Melanocortin receptor 3) | IC50 [5] | IC50 [6] | IC50 [7] | IC50 (Adenosine receptor A1) | IC50 (Cytochrome P450 1A2) | Ki (Cytochrome P450 1A2) | IC50 (Cytochrome P450 2E1) | Ki (Cytochrome P450 2E1)
